Results published in patent publication US20210300924A1, “5-[6-[[3-(4,5,6,7-TETRAHYDROPYRAZOLO[4,3-C]PYRIDIN-1-YL)AZETIDIN-1-YL]METHYL]MORPHOLIN-4-YL]QUINOLINE-8-CARBONITRILE DERIVATIVES AND SIMILAR COMPOUNDS AS TLR7-9 ANTAGONISTS FOR TREATING SYSTEMIC LUPUS ERYTHEMATOSUS” (Hoffmann-La Roche Inc., priority 2018, published 2021).
Marks after values point to notes of the source that are not given here.

Key:
[1] = Human microsome stability assay; type: in vitro ADME; conditions: 1 μM test compound, 0.5 mg/mL liver microsomal protein, 37° C., up to 30 minutes; 6.2 = detection limit
Experimental: Human Microsome Stability Assay
The human microsomal stability assay is used for early assessment of metabolic stability of a test compound in human liver microsomes.
Human liver microsomes (Cat. NO.: 452117, Corning, USA; Cat. NO.:H2610, Xenotech, USA) were preincubated with test compound for 10 minutes at 37° C. in 100 mM potassium phosphate buffer, pH 7.4. The reactions were initiated by adding NADPH regenerating system. The final incubation mixtures contained 1 μM test compound, 0.5 mg/mL liver microsomal protein, 1 mM MgCl2, 1 mM NADP, 1 unit/mL isocitric dehydrogenase and 6 mM isocitric acid in 100 mM potassium phosphate buffer, pH 7.4. After incubation times of 0, 3, 6, 9, 15 and 30 minutes at 37° C., 300 μL of cold acetonitrile (including internal standard) was added to 100 μL incubation mixture to terminate the reaction. Following precipitation and centrifugation, the amount of compound remaining in the samples were determined by LC-MS/MS. Controls of no NADPH regenerating system at zero and 30 minutes were also prepared and analyzed.

[2] = biological target: T1, TLR9 (Homo sapiens, UniProt Q9NR96); experiment: HEK293-Blue-hTLR-9 cells assay; type: cell-based; set-up: host or cells: HEK293 (HEK-Blue hTLR9); conditions: HEK293-Blue-hTLR9 cells, ODN2006 stimulation, 20 hrs, SEAP reporter; read-out: HEK/hTLR9 IC50
T1 sequence (Q9NR96 26-1032): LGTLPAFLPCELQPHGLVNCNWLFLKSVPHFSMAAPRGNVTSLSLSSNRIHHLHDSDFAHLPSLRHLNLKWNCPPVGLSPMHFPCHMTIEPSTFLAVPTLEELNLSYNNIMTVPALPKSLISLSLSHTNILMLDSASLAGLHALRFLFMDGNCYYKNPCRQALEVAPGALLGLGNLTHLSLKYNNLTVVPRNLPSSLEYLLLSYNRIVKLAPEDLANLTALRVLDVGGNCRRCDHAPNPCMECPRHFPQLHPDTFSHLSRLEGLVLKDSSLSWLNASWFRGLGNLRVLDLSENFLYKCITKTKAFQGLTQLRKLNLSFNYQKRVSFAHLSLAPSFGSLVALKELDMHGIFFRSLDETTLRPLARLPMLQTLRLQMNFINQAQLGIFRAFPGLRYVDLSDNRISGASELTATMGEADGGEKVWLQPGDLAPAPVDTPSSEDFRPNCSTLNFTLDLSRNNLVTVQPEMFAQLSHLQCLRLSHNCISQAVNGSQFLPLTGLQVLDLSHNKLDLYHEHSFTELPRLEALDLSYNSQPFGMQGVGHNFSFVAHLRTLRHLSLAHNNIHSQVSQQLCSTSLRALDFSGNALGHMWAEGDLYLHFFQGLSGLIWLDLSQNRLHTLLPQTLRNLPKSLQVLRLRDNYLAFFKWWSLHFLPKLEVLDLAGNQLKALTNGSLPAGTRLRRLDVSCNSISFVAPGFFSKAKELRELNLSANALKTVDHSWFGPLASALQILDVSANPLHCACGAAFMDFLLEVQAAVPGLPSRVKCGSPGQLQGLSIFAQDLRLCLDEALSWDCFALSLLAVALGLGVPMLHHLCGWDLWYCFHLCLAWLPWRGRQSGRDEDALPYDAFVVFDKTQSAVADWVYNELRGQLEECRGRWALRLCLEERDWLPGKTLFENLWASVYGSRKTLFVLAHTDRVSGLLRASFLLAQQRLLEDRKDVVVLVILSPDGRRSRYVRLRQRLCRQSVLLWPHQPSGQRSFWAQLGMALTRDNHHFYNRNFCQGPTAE
Text: HEK293-Blue-hTLR-9 Cells Assay:
A stable HEK293-Blue-hTLR-9 cell line was purchased from InvivoGen (Cat. #: hkb-htlr9, San Diego, Calif., USA). These cells were originally designed for studying the stimulation of human TLR9 by monitoring the activation of NF-κB. A SEAP (secreted embryonic alkaline phosphatase) reporter gene was placed under the control of the IFN-β minimal promoter fused to five NF-κB and AP-1-binding sites. The SEAP was induced by activating NF-κB and AP-1 via stimulating HEK-Blue hTLR9 cells with TLR9 ligands. Therefore the reporter expression was declined by TLR9 antagonist under the stimulation of a ligand, such as ODN2006 (Cat. #: tlr1-2006-1, Invivogen, San Diego, Calif., USA), for incubation of 20 hrs. The cell culture supernatant SEAP reporter activity was determined using QUANTI-Blue™ kit (Cat. #: rep-01, Invivogen, San Diego, Calif., USA) at a wavelength of 640 nm, a detection medium that turns purple or blue in the presence of alkaline phosphatase.
HEK293-Blue-hTLR9 cells were incubated at a density of 250,000-450,000 cells/mL in a volume of 170 μL in a 96-well plate in Dulbecco's Modified Eagle's medium (DMEM) containing 4.5 g/L glucose, 50 U/mL penicillin, […], 2 mM L-glutamine, 10% (v/v) heat-inactivated fetal bovine serum with addition of 20 μL test compound in a serial dilution in the presence of final DMSO at 1% and 10 μL of 20 uM ODN2006 in above DMEM, perform incubation under 37° C. in a CO2 incubator for 20 hrs. Then 20 μL of the supernatant from each well was incubated with 180 μL Quanti-blue substrate solution at 37° C. for 2 h and the absorbance was read at 620-655 nm using a spectrophotometer. The signaling pathway that TLR9 activation leads to downstream NF-κB activation has been widely accepted, and therefore similar reporter assay was modified for evaluating TLR9 antagonist.

| Compound | Clearance of Human microsome [1] | IC50 [2] [nM] |
| --- | --- | --- |
| C[C@@H]1CN(c2ccc(C#N)c3ncccc23)C[C@H](CN2CC(n3cc4c(n3)CN(C)CC4)C2)O1 [Example 5, 5-[(2R,6S)-2-methyl-6-[[3-(6-methyl-5,7-dihydro-4H-pyrazolo[3,4-c]pyridin-2-yl)azetidin-1-yl]methyl]morpholin-4-yl]quinoline-8-carbonitrile] | 6.2 mL/min/kg | 137 |
| C[C@@H]1CN(c2ccc(C#N)c3ncccc23)C[C@H](CN2CC(n3cc4c(n3)CNC4)C2)O1 [Example 11, 5-[(2S,6R)-2-[[3-(5,6-dihydro-4H-pyrrolo[3,4-c]pyrazol-2-yl)azetidin-1-yl]methyl]-6-methyl-morpholin-4-yl]quinoline-8-carbonitrile] | 6.2 mL/min/kg | 49 |
| C[C@@H]1Cc2nn(C3CN(C[C@H]4CN(c5ccc(C#N)c6ncccc56)C[C@@H](C)O4)C3)cc2CN1 [Example 17, 5-[(2R,6S)-2-methyl-6-[[3-[(6R)-6-methyl-4,5,6,7-tetrahydropyrazolo[4,3-c]pyridin-2-yl]azetidin-1-yl]methyl]morpholin-4-yl]quinoline-8-carbonitrile] | 6.2 mL/min/kg | 88 |
| C[C@@H]1CN(c2ccc(C#N)c3ncccc23)C[C@H](CN2CC(n3ncc4c3C[C@H](C)NC4)C2)O1 [Example 18, 5-[(2R,6S)-2-methyl-6-[[3-[(6S)-6-methyl-4,5,6,7-tetrahydropyrazolo[4,3-c]pyridin-1-yl]azetidin-1-yl]methyl]morpholin-4-yl]quinoline-8-carbonitrile] | 7.0 mL/min/kg | 147 |
| C[C@@H]1CN(c2ccc(C#N)c3ncccc23)C[C@H](CN2CC(n3cc4c(n3)C[C@H](C)NC4)C2)O1 [Example 19, 5-[(2R,6S)-2-methyl-6-[[3-[(6S)-6-methyl-4,5,6,7-tetrahydropyrazolo[4,3-c]pyridin-2-yl]azetidin-1-yl]methyl]morpholin-4-yl]quinoline-8-carbonitrile] | 6.2 mL/min/kg | 122 |
| C[C@@H]1CN(c2ccc(C#N)c3ncccc23)C[C@H](CN2CC(n3cc4c(n3)CCN[C@@H]4C)C2)O1 [Example 21, 5-[(2R,6S)-2-methyl-6-[[3-[(4R)-4-methyl-4,5,6,7-tetrahydropyrazolo[4,3-c]pyridin-2-yl]azetidin-1-yl]methyl]morpholin-4-yl]quinoline-8-carbonitrile] | 6.2 mL/min/kg | 80 |
| C[C@@H]1CN(c2ccc(C#N)c3ncccc23)C[C@H](CN2CC(n3cc4c(n3)CCN[C@H]4C)C2)O1 [Example 23, 5-[(2R,6S)-2-methyl-6-[[3-[(4S)-4-methyl-4,5,6,7-tetrahydropyrazolo[4,3-c]pyridin-2-yl]azetidin-1-yl]methyl]morpholin-4-yl]quinoline-8-carbonitrile] | 6.2 mL/min/kg | 84 |
| C[C@@H]1CN(c2ccc(C#N)c3ncccc23)C[C@H](CN2CCC(n3ncc4c3CCNC4)CC2)O1 [Example 35, 5-[(2R,6S)-2-methyl-6-[[4-(4,5,6,7-tetrahydropyrazolo[4,3-c]pyridin-1-yl)-1-piperidyl]methyl]morpholin-4-yl]quinoline-8-carbonitrile] | 7.7 mL/min/kg | 82 |

More lines, now with the values ahead:

| Clearance of Human microsome [1] | IC50 [2] [nM] | Compound |
| --- | --- | --- |
| 6.2* mL/min/kg | 57 | C[C@@H]1CN(c2ccc(C#N)c3ncccc23)C[C@H](CN2CC(n3ncc4c3CCNC4)C2)O1 [Example 1, 5-[(2R,6S)-2-methyl-6-[[3-(4,5,6,7-tetrahydropyrazolo[4,3-c]pyridin-1-yl)azetidin-1-yl]methyl]morpholin-4-yl]quinoline-8-carbonitrile] |
| 6.2 mL/min/kg | 66 | C[C@@H]1CN(c2ccc(C#N)c3ncccc23)C[C@H](CN2CC(n3cc4c(n3)CCNC4)C2)O1 [Example 2, 5-[(2R,6S)-2-methyl-6-[[3-(4,5,6,7-tetrahydropyrazolo[4,3-c]pyridin-2-yl)azetidin-1-yl]methyl]morpholin-4-yl]quinoline-8-carbonitrile] |
| 6.2 mL/min/kg | < 32 | C[C@@H]1CN(c2ccc(C#N)c3ncccc23)C[C@H](CN2CC(n3cc4c(n3)CNCC4)C2)O1 [Example 4, 5-[(2R,6S)-2-methyl-6-[[3-(4,5,6,7-tetrahydropyrazolo[3,4-c]pyridin-2-yl)azetidin-1-yl]methyl]morpholin-4-yl]quinoline-8-carbonitrile] |
| 7.2 mL/min/kg | 78 | C[C@@H]1Cc2c(cnn2C2CN(C[C@H]3CN(c4ccc(C#N)c5ncccc45)C[C@@H](C)O3)C2)CN1 [Example 16, 5-[(2R,6S)-2-methyl-6-[[3-[(6R)-6-methyl-4,5,6,7-tetrahydropyrazolo[4,3-c]pyridin-1-yl]azetidin-1-yl]methyl]morpholin-4-yl]quinoline-8-carbonitrile] |
| 6.2 mL/min/kg | 76 | C[C@@H]1CN(c2ccc(C#N)c3ncccc23)C[C@H](CN2CC(n3ncc4c3CCN[C@@H]4C)C2)O1 [Example 20, 5-[(2R,6S)-2-methyl-6-[[3-[(4R)-4-methyl-4,5,6,7-tetrahydropyrazolo[4,3-c]pyridin-1-yl]azetidin-1-yl]methyl]morpholin-4-yl]quinoline-8-carbonitrile] |
| 6.2 mL/min/kg | 70 | C[C@@H]1CN(c2ccc(C#N)c3ncccc23)C[C@H](CN2CC(n3ncc4c3CCN[C@H]4C)C2)O1 [Example 22, 5-[(2R,6S)-2-methyl-6-[[3-[(4S)-4-methyl-4,5,6,7-tetrahydropyrazolo[4,3-c]pyridin-1-yl]azetidin-1-yl]methyl]morpholin-4-yl]quinoline-8-carbonitrile] |
| 6.2 mL/min/kg | 55 | C[C@@H]1CN(c2ccc(C#N)c3ncccc23)C[C@H](CN2CCC(n3cc4c(n3)CCNC4)CC2)O1 [Example 36, 5-[(2R,6S)-2-methyl-6-[[4-(4,5,6,7-tetrahydropyrazolo[4,3-c]pyridin-2-yl)-1-piperidyl]methyl]morpholin-4-yl]quinoline-8-carbonitrile] |
